Read-outs that look alike come from different tables or passages of the source.
Assays:
[1] = test system: P. falciparum 3D7 (Pf3D7), CQ sensitive; assay: SYBR Green I growth inhibition assay, asynchronous P. falciparum 3D7 culture; type: cell-based, Plasmodium falciparum; conditions: SYBR Green, mean of three experiments, NDR / No IC50 = no dose response
Description: Antimalarial activity of all the listed Pht analogues was initially assessed on asynchronous cultures of P. falciparum 3D7 (Pf3D7) clone using the SYBR Green assay. […] The mean IC50 values are based on three separate experiments (Table 1).
The laboratory-adapted P. falciparum strains 3D7 (Africa; CQ sensitive) and W2 (Africa; CQ resistant), were acquired from Malaria Research and Reference Reagent Resource Center (MR4) (Manassas, VA, USA) and maintained with type O +ve erythrocytes suspended in continuous complete culture medium as described. Complete culture media consisted of 10.43 g/litre of RPMI 1640-HEPES supplemented with 10% (vol/vol) human AB serum, 92.6 mg/litre L-glutamine, 50 mg/liter hypoxanthine, 2 g/litre sodium bicarbonate (Sigma-Aldrich, St. Louis, MO). Incubation of cultures was at 37 °C and maintained in a low oxygen atmosphere (5% O2, 5% CO2, 90% N). The levels of parasitemia in the cultures were maintained at between 2 and 10%, with 5% hematocrit. Media was changed after every 24 hours and parasitemia monitored every 48 hours. Synchronous cultures were prepared by sorbitol lysis. Stock solutions of the Pht, Pht analogues, and DHA were prepared in absolute dimethyl sulfoxide (DMSO) while CQ was prepared in distilled water. The prepared drug stock solutions were used immediately or stored at −80 °C for not longer than one month before use. Stock solutions were further diluted in serum free RPMI 1640 media (stock solution solvent final conc. 0.05%) before performing a 2-fold serial dilution to achieve dose ranges of 0.2 µM to 100 µM (Pht and derivatives), 7.8 to 2,000 nM (CQ) and 0.17 to 87.5 nM (DHA). 25 μL of the drug diluents were aliquoted into 96 well plates and used immediately. Alternatively, the stock solutions were diluted in distilled water, 2-fold serial dilution performed on a 96 well plate and allowed to air dry in a laminar flow hood after which dried plates were stored at 4 °C until use. SYBR Green I assay technique with additional modification was used for drug susceptibility testing of the parasites. Parasite cultures of >1% parasitemia were diluted to 1% parasitemia and 2% hematocrit and 200 μL were transferred onto drug pre-dosed plates and incubated at 37 °C for 90 hours, [40]. Drug exposure was terminated by freezing the drug plates at −80 °C for 24 hours after which lysis buffer containing (per liter) 100 mM Tris-HCl, 10 mM EDTA, 0.016% Saponin, 1.6% triton X-100 and 20X SYBR Green I dye was added and the sample incubated for 2 hours in the dark. Relative fluorescence units (RFU) were read using the Perkin Elmer Wallac 1420 fluorescence plate reader, with excitation and emission wavelengths of 485 nm and 535 nm respectively. The readouts values were aligned with corresponding drug doses and analysis performed by Graph-pad Prism software. The drug concentrations (x value) were transformed using X = Log[X] and plotted against the counts (y values) and the data analysed by non-linear regression (sigmoid dose-response/variable slope equation) to yield the IC50.

[2] = test system: synchronized Pf3D7 strain cultures (rings, trophozoites); assay: Stage-specificity and parasitemia titres on synchronized Pf3D7 cultures (Giemsa smears); type: cell-based, Plasmodium falciparum; conditions: for effect on ring stage parasitemia: 6 hours post exposure of ring stages; for effect on ring stage parasitemia / effect on mature blood stage parasite titres (parasitemia): Fig. 5; for effect on mature blood stage parasite titres (parasitemia): 16 hours after incubation with trophozoite stage; for effect on progression from trophozoites to schizonts / schizont morphology: concentration = individual IC50, up to 16 hours exposure; for effect on ring-stage growth and morphology: newly synchronized rings, concentration = individual IC50, monitored at 6 and 12 hours
Method: Next, we sought to determine stage-specificity of the antiplasmodial activity of the four active analogues (6a, 6h, 6m and 6u) on synchronized Pf3D7 strain cultures at 2% hematocrit and 1% parasitemia, with concentrations corresponding to individual drug IC50. To determine the effect of the compounds on both early and late ring stage parasites, the treatment was conducted on newly synchronized rings for 12 hours, and drug effect on parasite growth and morphology was monitored at 6 and 12 hours after exposure. Similarly, early trophozoites were exposed to each compound and incubated for 16 hours, and monitored at 6 and 16 hours post-exposure. The effect of the compounds on parasite morphology and development was compared in exposed and unexposed drug wells (Figs 3 and 4).
Figure 5 Effect of Pht analogues on parasite growth titres (Note: Graphical description of the inhibitory effect of select analogues on parasite growth titres 6 hours after incubation with ring-stages and 16 hours after drug incubation with trophozoite stage. Parasitemia percentage was derived by counting the number of infected erythrocytes from a total of 2,000 erythrocytes on Giemsa stained thin smears from each experiment. Bar diagrams represent the average of three different experiments).

[3] = Pf3D7, asynchronous culture, read-out: IC50 (SE) µM
[4] = Plasmodium falciparum, 3D7, Pf3D7, asynchronous culture, read-out: IC50 (SE) µg/mL

Structure (SMILES) | IC50 ([1]; Pf3D7, asynchronous culture, listed as 6 u, read-out: IC50 (SE) µM) | IC50 [1, 3] | IC50 [1, 4] | effect on ring stage parasitemia [2] | effect on mature blood stage parasite titres (parasitemia) [2] | effect on progression from trophozoites to schizonts / schizont morphology ([2]; early trophozoites) | effect on ring-stage growth and morphology [2] | IC50 ([1]; Pf3D7, asynchronous culture, listed as 6 h, read-out: IC50 (SE) µM) | effect on trophozoites ([2]; early trophozoites, concentration = individual IC50, 6 hours after exposure)
CC(C)C[C@H](c1nc2ccccc2n1Cc1c[nH]nn1)N1C(=O)c2ccccc2C1=O [Compound 6u] | < 5.14 µM | 0.7 µM | 0.3 µg/mL | reduction in ring stage parasitemia | negligible | did not interfere with development of parasite progression from trophozoites to schizonts | active against ring-stage forms |  | 
CC[C@@H](C)[C@H](c1nc2ccccc2n1Cc1cn(-c2ccc(F)cc2)nn1)N1C(=O)c2ccccc2C1=O [Compound 6h] |  | 0.9 µM | 0.7 µg/mL | did not affect parasite growth | reduction in parasitemia | presence of schizonts with abnormal morphology | did not arrest ring-stage maturation | < 5.14 µM | complete destruction of trophozoites
